Laboratory results taken from patent EP4678627A1, “NOVEL FERROPTOSIS INHIBITORS” (Universiteit Antwerpen, priority 2024, dated 2026).

Assay: Human liver microsomal stability
Conditions: Corning ultra pool human liver microsome (HLM), NADPH, 1 µM, 0.5 mg/ml protein

## COc1ccc2c(c1)[C@]13CCCC[C@@H]1[C@H](C2)N(C)CC3 [Dextromethorphan]
  Microsomal stability in human t1/2: 40.0 min
